In patent US10280198B2, “Therapeutic agents for reducing parathyroid hormone levels” (KAI PHARMACEUTICALS, INC., priority 2009, dated 2019):
Read-outs that look alike come from different tables or passages of the source. Square brackets hold non-standard residues; d marks the D form. Peptide text beside a SMILES is read from it. dNle = CCCC[C@@H](N)C(=O)O; dNva = CCC[C@@H](N)C(=O)O

Legend:
[1] = tested on: rat peritoneal mast cells; test: In vitro histamine induction in rat peritoneal mast cells; type: cell-based
Experimental: To further evaluate the relationship between compound structure and histamine release, a series of compounds was prepared and assessed for their ability to trigger induction of histamine in an in vitro assay using rat peritoneal mast cells. In this assay, compounds are incubated at 10 μM for 15 minutes at 37° C. with cells isolated from peritoneal lavage of SD rats. Following incubation, cell medium is collected and histamine is determined.
Accordingly, and as can be appreciated in view of the PTH data and the histamine data described hereinabove, in one embodiment, a compound that has activity to decrease PTH level in a subject in the absence of a histamine response is contemplated. In certain embodiments, absence of a histamine response intends a dose of the compound that produces a less than 10-fold, more preferably 8-fold, still more preferably 5-fold, and even still more preferably 3-fold, increase in histamine, measured in vitro in an assay as described herein, where the fold change is determined based on histamine levels before incubation with the compound and after 15 minutes incubation with compound. In a specific embodiment, the histamine response is determined in an in vitro assay using rat peritoneal mast cells isolated from peritoneal lavage of normal Sprague Dawley rats, and where the fold change is determined based on histamine levels before incubation with the compound and after 15 minutes incubation with compound. In the studies conducted herein, the in vitro evaluation of histamine release was performed using isolated rat peritoneal mast cells isolated by peritoneal lavage using cold HBSS+25 mM HEPES pH 7.4 containing heparin (5 u/mL). Cells were washed twice in stimulation buffer (HBSS+25 mM HEPES pH 7.4) and incubated with 10 μM of compound in stimulation buffer (HBSS+25 mM HEPES pH 7.4) for 15 minutes in a 96-well plate ([…]) at 37° C. Cell supernatant was analyzed for histamine using histamine EIA kit (Cayman #589651).
For in vitro evaluation of histamine release, isolated rat peritoneal mast cells were isolated by performing peritoneal lavage using cold HBSS+25 mM HEPES pH 7.4 containing heparin (5 u/mL). Cells were washed twice in stimulation buffer (HBSS+25 mM HEPES pH 7.4) and incubated with 10 μM of compound in stimulation buffer (HBSS+25 mM HEPES pH 7.4) for 15 minutes in a 96-well plate (10^6/well) at 37° C. Cell supernatant was analyzed for histamine using histamine EIA kit (Cayman #589651).

[2] = tested on: plasma PTH; test: In vivo PTH lowering after IV bolus in isoflurane-anesthetized normal Sprague Dawley rats; design: species or system rat; conditions: for 0.5 mg/kg IV bolus % PTH AUC of saline control: normal rats, AUC 1-4 h; for % PTH reduction of baseline at 1 hour post IV administration of 0.5 mg/kg compound: isoflurane-anesthetized normal rats, 0.5 mg/kg IV
Experimental: The peptides were administered intravenously at a dose of 0.5 mg/kg into isoflurane-anesthetized normal Sprague Dawley rats. A control group of rats was treated with saline. Blood was drawn prior to dosing and every hour for 4 hours. Rats were maintained under isoflurane anesthesia for the entire study. […] Percent PTH reduction was calculated according to the following formula: AUCcmpd treated/AUCsaline control*100.
An intravenous (IV) bolus of saline was used as a control. Plasma (K2EDTA) PTH levels were assessed prior to dosing and 1, 2, 3 and 4 hours after dosing. Rats were maintained under isoflurane anesthesia for the entire study. […] In FIG. 2B, PTH is shown as percent of the baseline pre-dose value.
A series of compounds having an L-amino acid residue substituted for a D-amino acid residue were prepared. The compounds were administered as an IV bolus to normal Sprague Dawley rats at a dose of 0.5 mg/kg. An intravenous (IV) bolus of saline was used as a control. […] Rats were maintained under isoflurane anesthesia for the entire study.

Structure (SMILES) | Histamine in vitro Fold change of non-treated at 10 uM [1] [fold] | 0.5 mg/kg IV bolus % PTH AUC of saline control ([2]; Table 6) [%] | % PTH reduction of baseline at 1 hour post IV administration of 0.5 mg/kg compound ([2]; Table 2) [%] | 0.5 mg/kg IV bolus % PTH AUC of saline control ([2]; Table 2) [%] | 0.5 mg/kg IV bolus % PTH AUC of saline control ([2]; Table 7) [%] | Histamine in vitro Fold change of non-treated at 10 uM ([1]; Table 9, 10 μM, 15 minutes, 37° C.) [fold]
CC(=O)N[C@H](CS)C(=O)NCC(=O)N[C@H](CCCNC(=N)N)C(=O)N[C@H](CCCNC(=N)N)C(=O)N[C@H](CCCNC(=N)N)C(=O)N[C@H](C)C(=O)N[C@H](CCCNC(=N)N)C(N)=O [SEQ ID NO: 95, Ac-cGrrrar-NH2] (Ac-[dC]G[dR][dR][dR][dA][dR]-NH2) | 1.5 | 45 |  |  |  | 
CC(=O)N[C@H](CS)C(=O)N[C@H](C)C(=O)N[C@H](C)C(=O)N[C@H](CCCNC(=N)N)C(=O)N[C@H](CCCNC(=N)N)C(=O)N[C@H](CCCNC(=N)N)C(=O)N[C@H](CCCNC(=N)N)C(N)=O [SEQ ID NO: 22, Ac-caarrrr-NH2] (Ac-[dC][dA][dA][dR][dR][dR][dR]-NH2) | 1.2 |  | 24 | 48 |  | 
CC(=O)N[C@H](CS)C(=O)N[C@H](CCCNC(=N)N)C(=O)N[C@H](CCCNC(=N)N)C(=O)N[C@H](C)C(=O)N[C@H](C)C(=O)N[C@H](CCCNC(=N)N)C(=O)N[C@H](CCCNC(=N)N)C(N)=O [SEQ ID NO: 17, Ac-crraarr-NH2] (Ac-[dC][dR][dR][dA][dA][dR][dR]-NH2) | 1.3 |  | 39 | 102 |  | 
CCC[C@@H](NC(=O)[C@@H](CS)NC(C)=O)C(=O)N[C@H](CCCNC(=N)N)C(=O)N[C@H](CCCNC(=N)N)C(=O)N[C@H](CCCNC(=N)N)C(=O)N[C@H](C)C(=O)N[C@H](CCCNC(=N)N)C(N)=O [SEQ ID NO: 136, Ac-c-dNva-rrrar-NH2] (Ac-[dC][dNva][dR][dR][dR][dA][dR]-NH2) | 2.1 |  |  |  | 7 | 
CCC[C@@H](NC(=O)[C@@H](CCCNC(=N)N)NC(=O)[C@@H](CCCNC(=N)N)NC(=O)[C@@H](CCCNC(=N)N)NC(=O)[C@@H](C)NC(=O)[C@@H](CS)NC(C)=O)C(=O)N[C@H](CCCNC(=N)N)C(N)=O [SEQ ID NO: 131, Ac-carrr-dNva-r-NH2] (Ac-[dC][dA][dR][dR][dR][dNva][dR]-NH2) | 1.8 |  |  |  | 54 | 
CC(=O)N[C@H](CS)C(=O)N[C@H](CCCNC(=N)N)C(=O)N[C@H](CCCNC(=N)N)C(=O)N[C@@H](C(=O)N[C@H](CCCNC(=N)N)C(=O)N[C@H](C)C(=O)N[C@H](CCCNC(=N)N)C(N)=O)C(C)C [SEQ ID NO: 113, Ac-crrvrar-NH2] (Ac-[dC][dR][dR][dV][dR][dA][dR]-NH2) | 1.9 | 3 |  |  |  | 
CC(=O)N[C@H](CS)C(=O)N[C@H](CCCNC(=N)N)C(=O)N[C@H](CCCNC(=N)N)C(=O)N1CCC[C@@H]1C(=O)N[C@H](CCCNC(=N)N)C(=O)N[C@H](C)C(=O)N[C@H](CCCNC(=N)N)C(N)=O [SEQ ID NO: 106, Ac-crrprar-NH2] (Ac-[dC][dR][dR][dP][dR][dA][dR]-NH2) | 1.1 | 68 |  |  |  | 
CC(=O)N[C@H](CS)C(=O)N[C@H](C)C(=O)N[C@H](CCCNC(=N)N)C(=O)N[C@H](CCCNC(=N)N)C(=O)N[C@H](CCCNC(=N)N)C(=O)N[C@H](Cc1c[nH]cn1)C(=O)N[C@H](CCCNC(=N)N)C(N)=O [SEQ ID NO: 89, Ac-carrrhr-NH2] (Ac-[dC][dA][dR][dR][dR][dH][dR]-NH2) | 2.0 | 48 |  |  |  | 
CC[C@@H](C)[C@@H](NC(=O)[C@@H](CS)NC(C)=O)C(=O)N[C@H](CCCNC(=N)N)C(=O)N[C@H](CCCNC(=N)N)C(=O)N[C@H](CCCNC(=N)N)C(=O)N[C@H](C)C(=O)N[C@H](CCCNC(=N)N)C(N)=O [SEQ ID NO: 96, Ac-cirrrar-NH2] (Ac-[dC][dI][dR][dR][dR][dA][dR]-NH2) | 3.0 | 33 |  |  |  | 
CC(=O)N[C@H](CS)C(=O)N[C@H](CCCNC(=N)N)C(=O)N[C@H](C)C(=O)N[C@H](CCCNC(=N)N)C(=O)N[C@H](C)C(=O)N[C@H](CCCNC(=N)N)C(=O)N[C@H](CCCNC(=N)N)C(N)=O [SEQ ID NO: 18, Ac-crararr-NH2] (Ac-[dC][dR][dA][dR][dA][dR][dR]-NH2) | 1.4 |  | 72 | 87 |  | 
CC(=O)N[C@H](CS)C(=O)N[C@H](C)C(=O)N[C@H](CCCNC(=N)N)C(=O)N[C@H](CCCNC(=N)N)C(=O)N[C@H](CCCNC(=N)N)C(=O)N[C@H](CC(C)C)C(=O)N[C@H](CCCNC(=N)N)C(N)=O [SEQ ID NO: 85, Ac-carrrlr-NH2] (Ac-[dC][dA][dR][dR][dR][dL][dR]-NH2) |  | 140 |  |  |  | 2.5
CC(=O)N[C@H](CS)C(=O)N[C@H](Cc1ccccc1)C(=O)N[C@H](CCCNC(=N)N)C(=O)N[C@H](CCCNC(=N)N)C(=O)N[C@H](CCCNC(=N)N)C(=O)N[C@H](C)C(=O)N[C@H](CCCNC(=N)N)C(N)=O [SEQ ID NO: 104, Ac-cfrrrar-NH2] (Ac-[dC][dF][dR][dR][dR][dA][dR]-NH2) | 6.8 | 0 |  |  |  | 
CC(=O)N[C@H](CS)C(=O)N[C@H](CCCNC(=N)N)C(=O)N[C@H](CCCNC(=N)N)C(=O)N[C@H](CC(C)C)C(=O)N[C@H](CCCNC(=N)N)C(=O)N[C@H](C)C(=O)N[C@H](CCCNC(=N)N)C(N)=O [SEQ ID NO: 114, Ac-crrlrar-NH2] (Ac-[dC][dR][dR][dL][dR][dA][dR]-NH2) | 4.5 | 1 |  |  |  | 
CC(=O)N[C@H](CS)C(=O)N[C@H](CCCNC(=N)N)C(=O)N[C@H](CCCNC(=N)N)C(=O)N[C@H](Cc1ccccc1)C(=O)N[C@H](CCCNC(=N)N)C(=O)N[C@H](C)C(=O)N[C@H](CCCNC(=N)N)C(N)=O [SEQ ID NO: 110, Ac-crrfrar-NH2] (Ac-[dC][dR][dR][dF][dR][dA][dR]-NH2) | 6.2 | 6 |  |  |  | 
CC(=O)N[C@H](CS)C(=O)N[C@H](Cc1c[nH]cn1)C(=O)N[C@H](CCCNC(=N)N)C(=O)N[C@H](CCCNC(=N)N)C(=O)N[C@H](CCCNC(=N)N)C(=O)N[C@H](C)C(=O)N[C@H](CCCNC(=N)N)C(N)=O [SEQ ID NO: 103, Ac-chrrrar-NH2] (Ac-[dC][dH][dR][dR][dR][dA][dR]-NH2) | 1.6 | 1 |  |  |  | 
CCCC[C@@H](NC(=O)[C@@H](CCCNC(=N)N)NC(=O)[C@@H](C)NC(=O)[C@@H](CCCNC(=N)N)NC(=O)[C@@H](CCCNC(=N)N)NC(=O)[C@@H](CS)NC(C)=O)C(=O)N[C@H](CCCNC(=N)N)C(N)=O [SEQ ID NO: 133, Ac-crrar-dNle-r-NH2] (Ac-[dC][dR][dR][dA][dR][dNle][dR]-NH2) | 4.3 |  |  |  | 26 | 
CC(=O)N[C@H](CS)C(=O)N[C@H](CCCNC(=N)N)C(=O)N[C@H](CCCNC(=N)N)C(=O)N[C@H](CCC(N)=O)C(=O)N[C@H](CCCNC(=N)N)C(=O)N[C@H](C)C(=O)N[C@H](CCCNC(=N)N)C(N)=O [SEQ ID NO: 112, Ac-crrqrar-NH2] (Ac-[dC][dR][dR][dQ][dR][dA][dR]-NH2) | 1.2 | 4 |  |  |  | 
CCC[C@@H](NC(=O)[C@@H](CCCNC(=N)N)NC(=O)[C@@H](C)NC(=O)[C@@H](CCCNC(=N)N)NC(=O)[C@@H](CCCNC(=N)N)NC(=O)[C@@H](CS)NC(C)=O)C(=O)N[C@H](CCCNC(=N)N)C(N)=O [SEQ ID NO: 135, Ac-crrar-dNva-r-NH2] (Ac-[dC][dR][dR][dA][dR][dNva][dR]-NH2) | 1.1 |  |  |  | 8 | 
